Data reported in patent US11661426B2, “Imidazole-containing inhibitors of ALK2 kinase” (BioCryst Pharmaceuticals, Inc., priority 2017, dated 2023).

Molecular target: ALK2 (Homo sapiens (Human), UniProt Q04771)
Assay: ALK2 inhibition, LanthaScreen Eu Kinase Binding Assay (ThermoFisher Scientific / Life Technologies)
Details: read-out: Measured Ki (IC50) Value for Compounds: IC50
Experimental: Biochemical assays to measure the inhibitory effects of the compounds were performed by ThermoFisher Scientific (Life Technologies). ALK2 inhibition was tested using LanthaScreen™ Eu Kinase Binding Assay screening protocol.

Chain of ALK2 (Q04771 21-509): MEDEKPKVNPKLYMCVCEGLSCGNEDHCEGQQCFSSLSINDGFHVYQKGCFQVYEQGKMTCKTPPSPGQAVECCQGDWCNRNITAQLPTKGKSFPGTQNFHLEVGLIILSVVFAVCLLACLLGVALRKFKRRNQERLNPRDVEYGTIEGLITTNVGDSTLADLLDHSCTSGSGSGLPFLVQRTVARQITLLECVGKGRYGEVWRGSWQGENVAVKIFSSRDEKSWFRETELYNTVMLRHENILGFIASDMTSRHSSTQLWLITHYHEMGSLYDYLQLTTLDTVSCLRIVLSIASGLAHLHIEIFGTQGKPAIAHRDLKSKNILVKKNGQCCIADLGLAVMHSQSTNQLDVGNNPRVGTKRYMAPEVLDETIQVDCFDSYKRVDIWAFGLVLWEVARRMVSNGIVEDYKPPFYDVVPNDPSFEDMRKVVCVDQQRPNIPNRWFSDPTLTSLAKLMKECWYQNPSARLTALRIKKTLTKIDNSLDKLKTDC

Compound	IC50 [µM]
COc1cc(-n2cnc(Nc3nc(N4CCC[C@@H]4CO)c4sccc4n3)c2)cc(OC)c1OC [Compound 310b, (R)-(1-(2-((1-(3,4,5-trimethoxyphenyl)-1H-imidazol-4-yl)amino)thieno[3,2-d]pyrimidin-4-yl)pyrrolidin-2-yl)methanol]	< 0.1
COc1cc(-n2cnc(Nc3nc(N4CCC[C@H]4C(N)=O)nc4c3COC4)c2)cc(OC)c1OC [Compound 311a, (S)-1-(4-((1-(3,4,5-trimethoxyphenyl)-1H-imidazol-4-yl)amino)-5,7-dihydrofuro[3,4-d]pyrimidin-2-yl)pyrrolidine-2-carboxamide]	< 0.1
COc1cc(-n2cnc(Nc3nc(N4CCC[C@@H]4C(N)=O)nc4c3COC4)c2)cc(OC)c1OC [Compound 312a, (R)-1-(4-((1-(3,4,5-trimethoxyphenyl)-1H-imidazol-4-yl)amino)-5,7-dihydrofuro[3,4-d]pyrimidin-2-yl)pyrrolidine-2-carboxamide]	< 0.1
COc1cc(-n2cnc(Nc3nc(N4CCC[C@@H]4C(N)=O)nc4c3CCCC4)c2)cc(OC)c1OC [Compound 313a, (R)-1-(4-((1-(3,4,5-trimethoxyphenyl)-1H-imidazol-4-yl)amino)-5,6,7,8-tetrahydroquinazolin-2-yl)pyrrolidine-2-carboxamide]	< 0.1
COc1cc(-n2cnc(Nc3nc(N4CCC[C@@H]4C(N)=O)nc4[nH]ccc34)c2)cc(OC)c1OC [Compound 314b, (R)-1-(4-((1-(3,4,5-trimethoxyphenyl)-1H-imidazol-4-yl)amino)-7H-pyrrolo[2,3-d]pyrimidin-2-yl)pyrrolidine-2-carboxamide]	< 0.1
COc1cc(-n2cnc(Nc3nc(N4CCC[C@H]4C(N)=O)nc4cc(CN5CCCCC5)oc34)c2)cc(OC)c1OC [Compound 315f, (S)-1-(6-(piperidin-1-ylmethyl)-4-((1-(3,4,5-trimethoxyphenyl)-1H-imidazol-4-yl)amino)furo[3,2-d]pyrimidin-2-yl)pyrrolidine-2-carboxamide]	< 0.1
COc1cc(-n2cnc(Nc3nc(N4CCC[C@H]4CO)nc4cnn(C)c34)c2)cc(OC)c1OC [Compound 316a, (S)-(1-(1-methyl-7-((1-(3,4,5-trimethoxyphenyl)-1H-imidazol-4-yl)amino)-1H-pyrazolo[4,3-d]pyrimidin-5-yl)pyrrolidin-2-yl)methanol]	0.1 to 1
COc1cc(-n2cnc(Nc3nc(N4CCC[C@@H]4CO)nc4scnc34)c2)cc(OC)c1OC [Compound 317a, (R)-(1-(7-((1-(3,4,5-trimethoxyphenyl)-1H-imidazol-4-yl)amino)thiazolo[5,4-d]pyrimidin-5-yl)pyrrolidin-2-yl)methanol]	< 0.1
COc1cc(-n2cnc(Nc3nc(N4CCC[C@@H]4C(N)=O)nc4scnc34)c2)cc(OC)c1OC [Compound 318a, (R)-1-(7-((1-(3,4,5-trimethoxyphenyl)-1H-imidazol-4-yl)amino)thiazolo[5,4-d]pyrimidin-5-yl)pyrrolidine-2-carboxamide]	< 0.1
CCOc1ccc(-n2cnc(Nc3nc(N4CCC[C@H]4CO)nn4cccc34)c2)cc1OCC [Compound 319b, (S)-(1-(4-((1-(3,4-diethoxyphenyl)-1H-imidazol-4-yl)amino)pyrrolo[2,1-f][1,2,4]triazin-2-yl)pyrrolidin-2-yl)methanol]	0.1 to 1
COc1ccc(-n2cnc(Nc3nc(N4CCC[C@H]4CO)nn4cccc34)c2)cc1C(F)(F)F [Compound 320b, (S)-(1-(4-((1-(4-methoxy-3-(trifluoromethyl)phenyl)-1H-imidazol-4-yl)amino)pyrrolo[2,1-f][1,2,4]triazin-2-yl)pyrrolidin-2-yl)methanol]	< 0.1
COc1cncc(-n2cnc(Nc3nc(N4CCC[C@H]4CO)nn4cccc34)c2)c1 [Compound 321b, (S)-(1-(4-((1-(5-methoxypyridin-3-yl)-1H-imidazol-4-yl)amino)pyrrolo[2,1-f][1,2,4]triazin-2-yl)pyrrolidin-2-yl)methanol]	< 0.1
COc1cc(Cl)cc(-n2cnc(Nc3nc(N4CCC[C@H]4CO)nn4cccc34)c2)c1 [Compound 322b, (S)-(1-(4-((1-(3-chloro-5-methoxyphenyl)-1H-imidazol-4-yl)amino)pyrrolo[2,1-f][1,2,4]triazin-2-yl)pyrrolidin-2-yl)methanol]	< 0.1
COc1cc(-n2cnc(Nc3nc(N4C[C@@H]5C[C@@H]5[C@@H]4CO)c4cccn4n3)c2)cc(OC)c1OC [Compound 324b, ((1S,2R,5R)-3-(2-((1-(3,4,5-trimethoxyphenyl)-1H-imidazol-4-yl)amino)pyrrolo[2,1-f][1,2,4]triazin-4-yl)-3-azabicyclo[3.1.0]hexan-2-yl)methanol]	0.1 to 1
COc1cc(-n2cnc(Nc3nc(N4[C@H](CO)C[C@H]5C[C@H]54)c4cccn4n3)c2)cc(OC)c1OC [Compound 325e, ((1R,3S,5R)-2-(2-((1-(3,4,5-trimethoxyphenyl)-1H-imidazol-4-yl)amino)pyrrolo[2,1-f][1,2,4]triazin-4-yl)-2-azabicyclo[3.1.0]hexan-3-yl)methanol]	< 0.1
COc1cc(-n2cnc(Nc3nc(N4CCC[C@H]4CO)nc4c3cnn4C3CCCCO3)c2)cc(OC)c1OC (stereo partly drawn) [Compound 326c, ((2S)-1-(1-(tetrahydro-2H-pyran-2-yl)-4-((1-(3,4,5-trimethoxyphenyl)-1H-imidazol-4-yl)amino)-1H-pyrazolo[3,4-d]pyrimidin-6-yl)pyrrolidin-2-yl)methanol]	< 0.1
COc1cc(-n2cnc(Nc3nc(N4CCC[C@@H]4CO)c4ccccc4n3)c2)cc(OC)c1OC [Compound 327b, (R)-(1-(2-((1-(3,4,5-trimethoxyphenyl)-1H-imidazol-4-yl)amino)quinazolin-4-yl)pyrrolidin-2-yl)methanol]	< 0.1
COc1cc(-n2cnc(Nc3nc(N4CCC[C@H]4CO)c4c(cnn4C)n3)c2)cc(OC)c1OC [Compound 328c, (S)-(1-(1-methyl-5-((1-(3,4,5-trimethoxyphenyl)-1H-imidazol-4-yl)amino)-1H-pyrazolo[4,3-d]pyrimidin-7-yl)pyrrolidin-2-yl)methanol]	< 0.1
COc1cc(-n2cnc(Nc3nc(N4CCC[C@H]4CO)nc4[nH]ncc34)c2)cc(OC)c1OC [Compound 329a, (S)-(1-(4-((1-(3,4,5-trimethoxyphenyl)-1H-imidazol-4-yl)amino)-1H-pyrazolo[3,4-d]pyrimidin-6-yl)pyrrolidin-2-yl)methanol]	< 0.1
OC[C@@H]1CCCN1c1nc(Nc2cn(-c3cccc(OC(F)(F)F)c3)cn2)c2cccn2n1 [Compound 330b, (S)-(1-(4-((1-(3-(trifluoromethoxy)phenyl)-1H-imidazol-4-yl)amino)pyrrolo[2,1-f][1,2,4]triazin-2-yl)pyrrolidin-2-yl)methanol]	< 0.1
Cc1cc(OC(F)(F)F)cc(-n2cnc(Nc3nc(N4CCC[C@H]4CO)nn4cccc34)c2)c1 [Compound 331b, (S)-(1-(4-((1-(3-methyl-5-(trifluoromethoxy)phenyl)-1H-imidazol-4-yl)amino)pyrrolo[2,1-f][1,2,4]triazin-2-yl)pyrrolidin-2-yl)methanol]	< 0.1
COc1cc(-n2cnc(Nc3nc(N4C[C@@H]5C[C@@H]5[C@H]4CO)c4cccn4n3)c2)cc(OC)c1OC [Compound 332b, ((1S,2S,5R)-3-(2-((1-(3,4,5-trimethoxyphenyl)-1H-imidazol-4-yl)amino)pyrrolo[2,1-f][1,2,4]triazin-4-yl)-3-azabicyclo[3.1.0]hexan-2-yl)methanol]	< 0.1
COc1cc(-n2cnc(Nc3nc(N4CC[C@H](CO)C4)c4cccn4n3)c2)cc(OC)c1OC [Compound 333b, (S)-(1-(2-((1-(3,4,5-trimethoxyphenyl)-1H-imidazol-4-yl)amino)pyrrolo[2,1-f][1,2,4]triazin-4-yl)pyrrolidin-3-yl)methanol]	< 0.1
COc1cc(-n2cnc(Nc3nc(N4CCN(C)CC4)nn4cccc34)c2)cc(OC)c1OC [Compound 334a, 2-(4-methylpiperazin-1-yl)-N-(1-(3,4,5-trimethoxyphenyl)-1H-imidazol-4-yl)pyrrolo[2,1-f][1,2,4]triazin-4-amine]	< 0.1
COc1cc(-n2cnc(Nc3nc(N4CCC[C@H]4CO)c4cccc(CN5CCCCC5)c4n3)c2)cc(OC)c1OC [Compound 335d, (S)-(1-(8-(piperidin-1-ylmethyl)-2-((1-(3,4,5-trimethoxyphenyl)-1H-imidazol-4-yl)amino)quinazolin-4-yl)pyrrolidin-2-yl)methanol]	< 0.1
COc1cc(-n2cnc(Nc3nc(N4CCC[C@H]4CO)nc4c3cnn4C)c2)cc(OC)c1OC [Compound 336c, (S)-(1-(1-methyl-4-((1-(3,4,5-trimethoxyphenyl)-1H-imidazol-4-yl)amino)-1H-pyrazolo[3,4-d]pyrimidin-6-yl)pyrrolidin-2-yl)methanol]	< 0.1
COc1cc(-n2cnc(Nc3nc(N4CCC[C@H]4C(N)=O)nc4c3cnn4C)c2)cc(OC)c1OC [Compound 337a, (S)-1-(1-methyl-4-((1-(3,4,5-trimethoxyphenyl)-1H-imidazol-4-yl)amino)-1H-pyrazolo[3,4-d]pyrimidin-6-yl)pyrrolidine-2-carboxamide]	< 0.1
COc1cc(-n2cnc(Nc3nc(N4CCC[C@H]4CO)c4cnn(C)c4n3)c2)cc(OC)c1OC [Compound 338b, (S)-(1-(1-methyl-6-((1-(3,4,5-trimethoxyphenyl)-1H-imidazol-4-yl)amino)-1H-pyrazolo[3,4-d]pyrimidin-4-yl)pyrrolidin-2-yl)methanol]	< 0.1
OC[C@@H]1CCCN1c1nc(Nc2cn(-c3ccc4c(c3)OC(F)(F)O4)cn2)c2occc2n1 [Compound 339e, (S)-(1-(4-(1-(2,2-difluorobenzo[d][1,3]dioxol-5-yl)-1H-imidazol-4-ylamino)furo[3,2-d]pyrimidin-2-yl)pyrrolidin-2-yl)methanol]	0.1 to 1
COc1cc(-n2cnc(Nc3nc(N4CCC[C@H]4C(N)=O)nc4cccc(F)c34)c2)cc(OC)c1OC [Compound 340c, (S)-1-(5-fluoro-4-((1-(3,4,5-trimethoxyphenyl)-1H-imidazol-4-yl)amino)quinazolin-2-yl)pyrrolidine-2-carboxamide]	0.1 to 1
